Measured values taken from US9920010B2, “CXCR7 receptor modulators” (IDORSIA PHARMACEUTICALS LTD, priority 2013, dated 2018).

The compounds below were run against T1, CXCR7 (Homo sapiens, UniProt P25106) (assay: PathHunter CHO-K1 CXCR7 b-arrestin recruitment assay (CXCR7 agonistic activity)). Conditions: PathHunter CHO-K1 CXCR7 b-arrestin cell line.
T1 construct: host or cells: CHO-K1 (PathHunter CHO-K1 CXCR7 b-arrestin cell line, stably transfected)
Assay type: cell-based
Outline: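 Stable CHO-K1 line with C-terminally ProLink-tagged CXCR7 and β-arrestin 2–EA fusion; β-arrestin recruitment restores β-gal activity, read by chemiluminescence after 1 h RT detection. Cells seeded 24 h, starved in OPTIMEM 3–4 h, exposed to compounds 90 min at 37 °C in HBSS/HEPES/BSA. Geometric-mean EC50 from repeated measurements.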

T1 sequence (P25106 whole entry): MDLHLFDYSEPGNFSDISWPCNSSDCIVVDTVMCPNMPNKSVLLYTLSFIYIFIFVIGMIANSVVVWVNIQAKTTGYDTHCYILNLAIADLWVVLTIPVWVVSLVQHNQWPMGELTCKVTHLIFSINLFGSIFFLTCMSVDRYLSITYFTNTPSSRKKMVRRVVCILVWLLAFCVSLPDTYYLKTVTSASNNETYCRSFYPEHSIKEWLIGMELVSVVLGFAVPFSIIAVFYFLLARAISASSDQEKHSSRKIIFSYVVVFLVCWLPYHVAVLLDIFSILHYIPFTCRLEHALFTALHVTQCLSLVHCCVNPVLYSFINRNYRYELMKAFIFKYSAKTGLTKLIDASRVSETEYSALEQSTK
T1 sequence (P32121 whole entry partner): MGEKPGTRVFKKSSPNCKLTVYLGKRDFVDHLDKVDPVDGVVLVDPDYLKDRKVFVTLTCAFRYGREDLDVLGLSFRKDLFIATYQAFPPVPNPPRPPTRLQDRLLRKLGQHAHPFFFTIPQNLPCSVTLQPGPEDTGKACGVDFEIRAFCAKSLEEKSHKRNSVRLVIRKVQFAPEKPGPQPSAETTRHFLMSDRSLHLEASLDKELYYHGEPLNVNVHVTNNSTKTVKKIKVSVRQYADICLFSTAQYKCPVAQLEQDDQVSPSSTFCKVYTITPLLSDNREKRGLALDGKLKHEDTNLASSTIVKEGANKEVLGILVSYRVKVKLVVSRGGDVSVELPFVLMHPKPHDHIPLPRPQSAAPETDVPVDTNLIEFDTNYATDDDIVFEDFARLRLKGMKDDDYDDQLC

Going from Cc1ccccc1CCN(CCN(C)C)C(=O)CNc1cccc2c1CCN(CC1CC1)C2 [Example 40, 2-(2-Cyclopropylmethyl-1,2,3,4-tetrahydro-isoquinolin-5-ylamino)-N-(2-dimethylamino-ethyl)-N-(2-o-tolyl-ethyl)-acetamide] to CN(C)CCN(CCc1ccccc1C(F)(F)F)C(=O)CNc1cccc2c1CCN(CC1CC1)C2 [Example 57, 2-(2-Cyclopropylmethyl-1,2,3,4-tetrahydro-isoquinolin-5-ylamino)-N-(2-dimethylamino-ethyl)-N-[2-(2-trifluoromethyl-phenyl)-ethyl]-acetamide], the EC50 falls from 0.044 µM to 0.024 µM (1.8-fold). The second is the more potent here.

Compared with O=C(CNc1cccc2c1CCN(CC1CC1)C2)N(CCN1CCCC1)Cc1ccccc1 [Example 41, N-Benzyl-2-(2-cyclopropylmethyl-1,2,3,4-tetrahydro-isoquinolin-5-ylamino)-N-(2-pyrrolidin-1-yl-ethyl)-acetamide], O=C(CNc1cccc2c1CCN(CC1CC1)C2)N(CCN1CCCC1)Cc1ccccc1Cl [Example 43, N-(2-Chloro-benzyl)-2-(2-cyclopropylmethyl-1,2,3,4-tetrahydro-isoquinolin-5-ylamino)-N-(2-pyrrolidin-1-yl-ethyl)-acetamide] is 2.5-fold lower in EC50: 0.005 µM for the first, 0.002 µM for the second.

Compared with O=C(CNc1cccc2c1CCN(CC1CC1)C2)N(CCN1CCCC1)Cc1ccccc1F [Example 44, 2-(2-Cyclopropylmethyl-1,2,3,4-tetrahydro-isoquinolin-5-ylamino)-N-(2-fluoro-benzyl)-N-(2-pyrrolidin-1-yl-ethyl)-acetamide], O=C(CNc1cccc2c1CCN(CC1CC1)C2)N(CCN1CCCC1)Cc1ccccc1C(F)(F)F [Example 62, 2-(2-Cyclopropylmethyl-1,2,3,4-tetrahydro-isoquinolin-5-ylamino)-N-(2-pyrrolidin-1-yl-ethyl)-N-(2-trifluoromethyl-benzyl)-acetamide] is 3-fold lower in EC50: 0.003 µM for the first, 0.001 µM for the second. The second is the more potent here.

Going from C/C(=C\c1ccccc1)CN(CCN(C)C)C(=O)CNc1cccc2c1CCN(CC1CC1)C2 [Example 45, 2-(2-Cyclopropylmethyl-1,2,3,4-tetrahydro-isoquinolin-5-ylamino)-N-(2-dimethylamino-ethyl)-N-((E)-2-methyl-3-phenyl-allyl)-acetamide] to CN(C)CCN(Cc1ccccc1C(F)(F)F)C(=O)CNc1cccc2c1CCN(CC1CC1)C2 [Example 76, 2-(2-Cyclopropylmethyl-1,2,3,4-tetrahydro-isoquinolin-5-ylamino)-N-(2-dimethylamino-ethyl)-N-(2-trifluoromethyl-benzyl)-acetamide], the EC50 falls from 0.008 µM to 0.002 µM (4-fold).

First: CN(C)CCN(Cc1cccc(C(F)(F)F)n1)C(=O)CNc1cccc2c1CCN(CC1CC1)C2 [Example 46, 2-(2-Cyclopropylmethyl-1,2,3,4-tetrahydro-isoquinolin-5-ylamino)-N-(2-dimethylamino-ethyl)-N-(6-trifluoromethyl-pyridin-2-ylmethyl)-acetamide]
Second: CN(C)CCN(Cc1ncccc1C(F)(F)F)C(=O)CNc1cccc2c1CCN(CC1CC1)C2 [Example 47, 2-(2-Cyclopropylmethyl-1,2,3,4-tetrahydro-isoquinolin-5-ylamino)-N-(2-dimethylamino-ethyl)-N-(3-trifluoromethyl-pyridin-2-ylmethyl)-acetamide]
The EC50 of the first is 1.5-fold higher: 0.003 µM for the first, 0.002 µM for the second. The second is the more potent here.

First: CC(C)CCN(Cc1ccccc1C(F)(F)F)C(=O)CNc1cccc2c1CCN(CC1CC1)C2 [Example 48, 2-(2-Cyclopropylmethyl-1,2,3,4-tetrahydro-isoquinolin-5-ylamino)-N-(3-methyl-butyl)-N-(2-trifluoromethyl-benzyl)-acetamide]
Second: N#CCCN(Cc1ccccc1C(F)(F)F)C(=O)CNc1cccc2c1CCN(CC1CC1)C2 [Example 72, N-(2-Cyano-ethyl)-2-(2-cyclopropylmethyl-1,2,3,4-tetrahydro-isoquinolin-5-ylamino)-N-(2-trifluoromethyl-benzyl)-acetamide]
The EC50 of the first is 1.9-fold higher: 0.052 µM for the first, 0.028 µM for the second.

Compared with O=C(CNc1cccc2c1CCN(CC1CC1)C2)N(CCN1CCCC1)Cc1ccc(F)cc1Cl [Example 50, N-(2-Chloro-4-fluoro-benzyl)-2-(2-cyclopropylmethyl-1,2,3,4-tetrahydro-isoquinolin-5-ylamino)-N-(2-pyrrolidin-1-yl-ethyl)-acetamide], O=C(CNc1cccc2c1CCN(CC1CC1)C2)N(CCN1CCCC1)Cc1ccc(F)cc1F [Example 51, 2-(2-Cyclopropylmethyl-1,2,3,4-tetrahydro-isoquinolin-5-ylamino)-N-(2,4-difluoro-benzyl)-N-(2-pyrrolidin-1-yl-ethyl)-acetamide] is 2-fold lower in EC50: 0.006 µM for the first, 0.003 µM for the second.

First: CN(C)CCN(Cc1ccc(F)cc1C(F)(F)F)C(=O)CNc1cccc2c1CCN(CC1CC1)C2 [Example 54, 2-(2-Cyclopropylmethyl-1,2,3,4-tetrahydro-isoquinolin-5-ylamino)-N-(2-dimethylamino-ethyl)-N-(4-fluoro-2-trifluoromethyl-benzyl)-acetamide]
Second: CN(C)CCN(CCc1cccc(C(F)(F)F)c1)C(=O)CNc1cccc2c1CCN(CC1CC1)C2 [Example 55, 2-(2-Cyclopropylmethyl-1,2,3,4-tetrahydro-isoquinolin-5-ylamino)-N-(2-dimethylamino-ethyl)-N-[2-(3-trifluoromethyl-phenyl)-ethyl]-acetamide]
The EC50 of the first is 6.1-fold lower: 0.007 µM for the first, 0.043 µM for the second.

CN(C)CCN(CCc1ccc(C(F)(F)F)cc1)C(=O)CNc1cccc2c1CCN(CC1CC1)C2 [Example 56, 2-(2-Cyclopropylmethyl-1,2,3,4-tetrahydro-isoquinolin-5-ylamino)-N-(2-dimethylamino-ethyl)-N-[2-(4-trifluoromethyl-phenyl)-ethyl]-acetamide] and NCCN(Cc1ccc(C(F)(F)F)cc1)C(=O)CNc1cccc2c1CCN(CC1CC1)C2 [Example 73, N-(2-Amino-ethyl)-2-(2-cyclopropylmethyl-1,2,3,4-tetrahydro-isoquinolin-5-ylamino)-N-(4-trifluoromethyl-benzyl)-acetamide] are within 1.5-fold of each other in EC50: 0.07 µM for the first, 0.066 µM for the second.

COc1ccc(CCN(CCN(C)C)C(=O)CNc2cccc3c2CCN(CC2CC2)C3)cc1OC [Example 59, 2-(2-Cyclopropylmethyl-1,2,3,4-tetrahydro-isoquinolin-5-ylamino)-N-[2-(3,4-dimethoxy-phenyl)-ethyl]-N-(2-dimethylamino-ethyl)-acetamide] and CCN(Cc1ccccc1Cl)C(=O)CNc1cccc2c1CCN(CC1CC1)C2 [Example 66, N-(2-Chloro-benzyl)-2-(2-cyclopropylmethyl-1,2,3,4-tetrahydro-isoquinolin-5-ylamino)-N-ethyl-acetamide] are within 1.5-fold of each other in EC50: 0.147 µM for the first, 0.168 µM for the second.

First: CCN(CC)CCN(Cc1ccccc1C(F)(F)F)C(=O)CNc1cccc2c1CCN(CC1CC1)C2 [Example 60, 2-(2-Cyclopropylmethyl-1,2,3,4-tetrahydro-isoquinolin-5-ylamino)-N-(2-diethylamino-ethyl)-N-(2-trifluoromethyl-benzyl)-acetamide]
Second: O=C1CCCN1CCN(Cc1ccccc1C(F)(F)F)C(=O)CNc1cccc2c1CCN(CC1CC1)C2 [Example 63, 2-(2-Cyclopropylmethyl-1,2,3,4-tetrahydro-isoquinolin-5-ylamino)-N-[2-(2-oxo-pyrrolidin-1-yl)-ethyl]-N-(2-trifluoromethyl-benzyl)-acetamide]
The EC50 of the first is 19-fold lower: 0.001 µM for the first, 0.019 µM for the second.

Going from O=C(CNc1cccc2c1CCN(CC1CC1)C2)N(CCN1CCOCC1)Cc1ccccc1C(F)(F)F [Example 64, 2-(2-Cyclopropylmethyl-1,2,3,4-tetrahydro-isoquinolin-5-ylamino)-N-(2-morpholin-4-yl-ethyl)-N-(2-trifluoromethyl-benzyl)-acetamide] to O=C(CNc1cccc2c1CCN(CC1CC1)C2)N(Cc1ccccc1C(F)(F)F)C1CCOCC1 [Example 74, 2-(2-Cyclopropylmethyl-1,2,3,4-tetrahydro-isoquinolin-5-ylamino)-N-(tetrahydro-pyran-4-yl)-N-(2-trifluoromethyl-benzyl)-acetamide], the EC50 rises from 0.008 µM to 0.049 µM (6.1-fold).

Going from N#CCCN(Cc1ccccc1)C(=O)CNc1cccc2c1CCN(CC1CC1)C2 [Example 67, N-Benzyl-N-(2-cyano-ethyl)-2-(2-cyclopropylmethyl-1,2,3,4-tetrahydro-isoquinolin-5-ylamino)-acetamide] to NC(=O)CCN(Cc1ccccc1)C(=O)CNc1cccc2c1CCN(CC1CC1)C2 [Example 68, 3-{Benzyl-[2-(2-cyclopropylmethyl-1,2,3,4-tetrahydro-isoquinolin-5-ylamino)-acetyl]-amino}-propionamide], the EC50 rises from 0.115 µM to 0.33 µM (2.9-fold).

First: Cc1cccc(CN(C(=O)CNc2cccc3c2CCN(CC2CC2)C3)C2CC2)c1C [Example 69, N-Cyclopropyl-2-(2-cyclopropylmethyl-1,2,3,4-tetrahydro-isoquinolin-5-ylamino)-N-(2,3-dimethyl-benzyl)-acetamide]
Second: Cc1csc(CN(Cc2ccccc2C(F)(F)F)C(=O)CNc2cccc3c2CCN(CC2CC2)C3)n1 [Example 77, 2-(2-Cyclopropylmethyl-1,2,3,4-tetrahydro-isoquinolin-5-ylamino)-N-(4-methyl-thiazol-2-ylmethyl)-N-(2-trifluoromethyl-benzyl)-acetamide]
The EC50 of the first is 9.1-fold higher: 0.418 µM for the first, 0.046 µM for the second.

Going from CCOC(=O)CN(Cc1ccccc1)C(=O)CNc1cccc2c1CCN(CC1CC1)C2 [Example 71, {Benzyl-[2-(2-cyclopropylmethyl-1,2,3,4-tetrahydro-isoquinolin-5-ylamino)-acetyl]-amino}-acetic acid ethyl ester] to O=C(CNc1cccc2c1CCN(CC1CC1)C2)N(CCc1ccc(F)cc1)Cc1ccccc1 [Example 75, N-Benzyl-2-(2-cyclopropylmethyl-1,2,3,4-tetrahydro-isoquinolin-5-ylamino)-N-[2-(4-fluoro-phenyl)-ethyl]-acetamide], the EC50 falls from 0.326 µM to 0.137 µM (2.4-fold).

In the case of O=C1CC(CN(Cc2ccccc2C(F)(F)F)C(=O)CNc2cccc3c2CCN(CC2CC2)C3)=CC=N1 [Example 78, 2-(2-Cyclopropylmethyl-1,2,3,4-tetrahydro-isoquinolin-5-ylamino)-N-(2-oxo-2,3-dihydro-pyridin-4-ylmethyl)-N-(2-trifluoromethyl-benzyl)-acetamide], the EC50 is reported as 0.376 µM.
